One data set concerns OGG1. More on the design: method as in PMID 12592398. The settings on record: cited from earlier work.
The next data set addresses human OGG1 (Homo sapiens, UniProt O15527). Nature of the data set: Fluorescent steady-state kinetic assay of OGG1 activation (initial rates; screening concentration response).
Data set [1] deals with A549 cells. In words: mtDNA damage by long/short chain PCR. The settings on record: PQ 0.3–3 mM. It counts as cell-based, human.
Data set [2] deals with A549 cells. Nature of the data set: Mitochondrial ROS with MitoSOX. It counts as cell-based, human.
Data set [3] has as its system A549 cells. In words: Nuclear DNA damage by γ-H2AX staining. It counts as cell-based, human.
In data set [4] the test system is A549 cells. In words: DRP1 content by quantitative imaging. It is filed as cell-based, human. Conditions: 0.6 mM PQ, 48 h.
Data set [5] concerns A549 cells. In words: OGG1 content by imaging. It is filed as cell-based, human. Conditions: 0.6 mM PQ, N = 1 in triplicate.
Data set [6] concerns A549 cells. In words: ROS production with CM-H2DCFDA (DCF) imaging. It is filed as cell-based, human. The settings on record: for EC50: Homo sapiens.
For data set [7], the system named is A549 cells. Nature of the data set: TOM20 immunofluorescence. Conditions: 0.3 mM PQ, 48 h. It counts as cell-based, human.
Data set [8] has as its system A549 cells. In words: Measurement of energy metabolites (ATP, ADP). It counts as cell-based, human.
The subject of data set [9] is A549 cells. Nature of the data set: Mitochondrial membrane integrity (MitoTracker orange texture analysis). It counts as cell-based, human. The settings on record: 24 h.
In data set [10] the test system is A549 cells. In words: DNA ligase III (LIG3) protein content by imaging. Conditions: 48 h of PQ at either 0.6 or 1 mM. It is filed as cell-based, human.
Where [11] appears, read: initial rate analysis, random mechanism.

Several values for one entry are separate records, joined by “and”; a condition that tells them apart may be missing. Identical values can stand only once.

Chain of human OGG1 (O15527 12-345): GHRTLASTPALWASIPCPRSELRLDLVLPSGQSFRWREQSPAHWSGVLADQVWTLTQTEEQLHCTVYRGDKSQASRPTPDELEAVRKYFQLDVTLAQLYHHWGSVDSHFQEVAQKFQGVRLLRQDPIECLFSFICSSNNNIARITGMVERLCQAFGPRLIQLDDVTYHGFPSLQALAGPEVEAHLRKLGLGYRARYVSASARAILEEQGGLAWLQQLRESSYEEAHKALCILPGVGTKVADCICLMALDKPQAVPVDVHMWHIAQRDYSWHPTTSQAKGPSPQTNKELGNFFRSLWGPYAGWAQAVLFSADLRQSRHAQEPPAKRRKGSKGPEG

For the molecule `Nc1nc2nc(N)[nH]c2c(=O)[nH]1` [Compound 8-aminoGua, 8-aminoguanine], in the data set with OGG1, the “acceleration / activation level of AP lyase activity” value was > 35 fold and the substrate turnover is on record as 72%.
With `Nc1nc2cc[nH]c2c(=O)[nH]1` [Compound 9-deazaGua, 9-deazaguanine], the “β value as percent of catalytic activity of OGG1 in the presence of 8-bromoGua” value at human OGG1 worked out at 50%. Further, the “OGG1 initial rate relative to that in the presence of 200 μM 8-bromoGua” value on human OGG1 (200 μM activator, substrate 80 nM) is ~ 25%. At human OGG1 (initial rate analysis with activator and Substrate A varied, OGG1 10 nM), the Km was determined as 0.015 ± 0.003 µM. Moreover, the kcat on human OGG1 (initial rate analysis with activator and Substrate A varied, OGG1 10 nM, random mechanism fit) is 0.006 ± 0.001 s⁻¹ and 0.006 ± 1 s⁻¹. Also, on human OGG1 (setting [11]), the “α (coefficient of interaction between activator and substrate)” value amounted to 1.3 ± 0.4; the “β (factor of kcat activation)” value is recorded as 18 ± 3.
For the molecule `C[n+]1ccc(-c2cc[n+](C)cc2)cc1.[Cl-].[Cl-]` [Paraquat, N, N′-dimethyl-4,4′-bipyridinium dichloride], the “concentration giving maximal mtDNA damage” value with A549 cells [1] worked out at 600 µM. In addition, in the data set on A549 cells [2] (3 mM), the “maximal mitochondrial ROS signal intensity (MitoSOX)” value amounted to 1.75 fold. Also, the 50% effective concentration (EC50) with A549 cells [2] (Homo sapiens, A549, 24 h of exposure) was determined as 280 µM; in the data set with A549 cells [6] (A549, 24 h) it was 1600 µM; with A549 cells [6] (A549, 48 h), 340 µM. For the same molecule, the “rise in γH2AX (nuclear DNA damage)” value in the data set on A549 cells [3] stood at 2 fold. Further, the “decline of DRP1 content compared to control” value in the data set on A549 cells [4] is “about 24 ± 0.02%”. Besides, the “increase of OGG1 content above baseline” value with A549 cells [5] is listed as 88.3%. Besides, the “maximum ROS (DCF) over baseline” value is 30 fold in the data set with A549 cells [6] (0.6 mM, 48 h) and 30 fold with A549 cells [6] (3 mM, 24 h). Moreover, in the data set on A549 cells [7], the “TOM20 immunofluorescence increase above baseline” value is listed as ~25%. Besides, the ATP levels in the data set on A549 cells [8] (24 h with PQ, concentrations not given at the place, listed as PQ) is 3.13 ± 0.14 μmol/gm protein and 2.49 ± 0.67 μmol/gm protein and 1.99 ± 0.45 μmol/gm protein. Besides, the ADP levels in the data set on A549 cells [8] (PQ 3 mM, 48 h, time-course experiment) came out at 68.69 ± 1.47 μmol/gm protein. The “ATP Average” value with A549 cells [8] (paraquat 0.3 mM alone, 48 h) is 2.56 µmols/g protein and 2.83 µmols/g protein and 1.89 µmols/g protein; in the data set with A549 cells [8] (paraquat 0.6 mM alone, 48 h), 1.43 µmols/g protein and 1.67 µmols/g protein and 1.19 µmols/g protein; in the data set with A549 cells [8] (paraquat 1 mM alone, 48 h), 1.47 µmols/g protein and 0.92 µmols/g protein and 1.02 µmols/g protein; in the data set on A549 cells [8] (paraquat 3 mM alone, 48 h), 0.96 µmols/g protein and 0.61 µmols/g protein and 0.63 µmols/g protein; with A549 cells [8] (paraquat 3 mM alone, 48 h, listed as PQ), 0.63 ± 0.05 µmols/g protein and 0.96 ± 0.10 µmols/g protein and 0.61 ± 0.09 µmols/g protein. Besides, in the data set with A549 cells [8] (paraquat 3 mM alone, 48 h), the “ADP Average” value is 40.48 µmols/g protein and 41.33 µmols/g protein and 53.45 µmols/g protein. The “concentration giving maximum effect on mitochondrial membrane integrity” value in the data set on A549 cells [9] was 3000 µM. In the data set with A549 cells [10], the “decline of LIG3 levels” value is reported as “about 50%”.

By Km is commonly meant the substrate concentration at which the rate is half of its maximum. A word on the kcat: it is the number of substrate molecules converted per active site and unit of time at saturation. For orientation: EC50 means the concentration that produces a half-maximal response. A lower EC50 goes with an effect from little substance.
